The subject of data set [1] is rats (acute thermal nociception). As to the kind of experiment: tail flick assay, intrathecal administration. The data set is classed as in vivo, rat. As to conditions: intrathecal 0.1, 1 or 10 μg on successive days, 1 hr post-drug, vs baseline and saline. Here is the method: As a general matter, rats underwent implantation of a catheter for drug delivery into the lumbo-thoracic intrathecal space. A polyurethane catheter was inserted through an incision in the atlanto-occipital membrane and passed caudally to the lumbar level. The distal part of the catheter was exteriorized and connected to a Pinport access port (Instech). Each rat received a standard protocol of anesthesia and antibiotics. Patency checks of the catheter system were performed once weekly following surgeries using 0.02 mL of physiological saline continuing until completion of the dosing period. The Pinport was wiped with alcohol prior to any injection. A minimum of 9-10 days was allowed between surgery and the first dosing in order for the rats to recover fully from surgical trauma. Intrathecal injection of test items always involved the following procedure: test items were administered by slow bolus injection via the Pinport connected to the intrathecal catheter. The dose volume for each animal was fixed at 10 μL and injected slowly over duration of ˜5 minutes. Following dose administration, the catheter was flushed with 20 μL of physiological saline.
A Tail-Flick Analgesia Meter (Columbus Instruments) was used. […] Afterwards, baseline tail-flick latency was measured using a lamp intensity adjusted such that the baseline tail-flick latencies were in the 6-8 second range. […]

A further data set concerns the target human delta receptor (Homo sapiens, UniProt P41143). As to conditions: Ferrari et al. 2017; cited from earlier work.
The conditions of data set [2]: systemically administered, Hirao et al. 2008, cited from earlier work.
Data set [3] relates to rats (monosodium-iodoacetate model of osteoarthritis). As to the kind of experiment: monosodium-iodoacetate model of osteoarthritis: lameness (dynamic weight bearing). As to conditions: for lameness (% RL-% RR), early and late phase: intrathecal, 1 hr post-drug, vs intrathecal saline.
For data set [4] the test system is unchanged. Briefly: monosodium-iodoacetate model of osteoarthritis: locomotor activity (total distance travelled).

human delta receptor, sequence (P41143 whole entry): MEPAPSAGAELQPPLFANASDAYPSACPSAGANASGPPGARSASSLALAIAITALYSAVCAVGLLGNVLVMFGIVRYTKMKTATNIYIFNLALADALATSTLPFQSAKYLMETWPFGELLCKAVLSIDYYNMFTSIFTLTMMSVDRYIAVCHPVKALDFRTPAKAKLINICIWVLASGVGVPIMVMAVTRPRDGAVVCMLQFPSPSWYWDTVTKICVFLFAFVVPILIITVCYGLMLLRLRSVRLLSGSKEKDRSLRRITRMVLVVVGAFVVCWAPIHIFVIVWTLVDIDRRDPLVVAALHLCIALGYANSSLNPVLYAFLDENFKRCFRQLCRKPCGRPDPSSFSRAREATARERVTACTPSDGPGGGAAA

In the case of `CC1(N2CCC(n3c([C@@H]4CCCNC4)nc4ccccc43)CC2)CCCCCCC1` [MCOPPB, 1-[1-(1-methylcyclooctyl)-4-piperidinyl]-2-[(3R)-3-piperidinyl]-1H-benzimidazole], in data set [1], the tail-flick latency result is “significantly, and dose-dependently, increased TF latencies”. Moreover, the “activation of the human delta receptor” value on human delta receptor is reported as “only a small amount”. Further, in data set [2], the anxiolytic effects entry was “potent anxiolytic effects” and the “inhibition of memory or motor function” value is “no inhibition of memory or motor function”. In addition, in data set [2] (appear only at much higher doses than the effective anxiolytic dose range), the sedative side effects result was “only slight sedative side effects”. Besides, the “lameness, early phase” value in data set [3] (intrathecal 1 μg, Days 2-4, vs saline) is given as “sufficient to reduce lameness significantly”. Moreover, in data set [3] (intrathecal 0.1, 1 or 10 μg, Days 22-24), the “lameness, late phase, dose-response” value is given as “dose-related effects”. The “lameness, late phase, 1 and 10 μg” value in data set [3] (intrathecal 1 and 10 μg, Days 22-24, vs saline) is reported as “significantly reduced lameness”. Further, the “lameness (% RL-% RR), early and late phase” value in data set [3] was “significantly reduced lameness levels”. Further, the “locomotor activity (total distance travelled), early phase” value in data set [4] (intrathecal 1 μg, vs intrathecal vehicle) was “did not change locomotor activity”. The “locomotor activity (total distance travelled), late phase” value in data set [4] (intrathecal 0.1, 1 or 10 μg, 0.1 and 10 μg reached statistical significance vs vehicle) is “appeared to restore locomotor activity to the level displayed by both treatment groups during the early phase”.
In the case of `CN1CC[C@]23c4c5ccc(O)c4O[C@H]2[C@@H](O)C=C[C@H]3[C@H]1C5.O=S(=O)(O)O` [morphine sulfate, reference compound], the “lameness, last two days of the late phase” value in data set [3] (intrathecal 15 μg, vs saline) is reported as “statistical significance was not quite achieved”. In addition, the “lameness (% RL-% RR), early and late phase” value in data set [3] is on record as “significantly reduced lameness levels”.

The values are drawn from patent publication US11872219B2 (priority 2018, dated 2024).
